# Measurements published in patent publication US7538073B2, “Pyrazoylcarboxanilides as fungicides” (Bayer CropScience AG, priority 2001, dated 2009).
# Tested on: Podosphaera leucotricha
# Test: Podosphaera test (apple)/protective
# Assay type: in vivo
# Conditions: protective, application rate 100 g/ha, evaluation 10 days after inoculation
# Experimental: (§1) To produce a suitable preparation of active compound, 1 part by weight of active compound is mixed with the stated amounts of solvent and emulsifier, and the concentrate is diluted with water to the desired concentration.
# To test for protective activity, young plants are sprayed with the preparation of active compound at the stated application rate. After the spray coating has dried on, the plants are inoculated with an aqueous spore suspension of the apple mildew pathogen Podosphaera leucotricha. The plants are then placed in a greenhouse at about 23° C. and a relative atmospheric humidity of about 70%.
# Evaluation is carried out 10 days after the inoculation. 0% means an efficacy which corresponds to that of the control, whereas an efficacy of 100% means that no infection is observed.
row,SMILES,Efficacy in %
1,C=C(c1ccccc1NC(=O)c1c(C)nn(C)c1F)C(C)C [drawing 97],90%
2,CCCC(C)c1ccccc1NC(=O)c1c(C)nn(C)c1F (centres unmarked) [drawing 98],100%
3,Cc1nn(C)c(F)c1C(=O)Nc1ccccc1C(C)C(C)C (centres unmarked) [drawing 99],100%
4,Cc1nn(C)c(F)c1C(=O)Nc1ccc(Cl)cc1C(C)C(C)C (centres unmarked) [drawing 100],100%

# Tested on: Pyrenophora teres
# Test: Pyrenophora teres test (barley)/protective
# Assay type: in vivo
# Conditions: protective, application rate 250 g/ha, evaluation 7 days after inoculation
# Experimental: To produce a suitable preparation of active compound, 1 part by weight of active compound is mixed with the stated amount of solvent and emulsifier, and the concentrate is diluted with water to the desired concentration.
# To test for protective activity, young plants are sprayed with the preparation of active compound at the stated application rate. After the spray coating has dried on, the plants are sprayed with a conidia suspension of Pyrenophora teres. The plants remain in an incubation cabin at 20° C. and 100% relative atmospheric humidity for 48 hours.
# The plants are then placed in a greenhouse at a temperature of about 20° C. and a relative atmospheric humidity of about 80%.
# Evaluation is carried out 7 days after the inoculation. 0% means an efficacy which corresponds to that of the control, whereas an efficacy of 100% means that no infection is observed.
row,SMILES,Efficacy in %
1,CCCC(C)c1ccccc1NC(=O)c1c(C)nn(C)c1F (centres unmarked) [drawing 95],100%
2,Cc1nn(C)c(F)c1C(=O)Nc1ccccc1C(C)C(C)C (centres unmarked) [drawing 96],100%

# Tested on: Altemaria solani
# Test: Alternaria test (tomato)/protective
# Assay type: in vivo
# Conditions: protective, application rate 750 g/ha, evaluation 7 days after inoculation
# Experimental: as §1
# To test for protective activity, young tomato plants are sprayed with the preparation of active compound at the stated application rate. 1 day after the treatment, the plants are inoculated with a spore suspension of Altemaria solani and then remain at 100% rel. humidity and 20° C. for 24 h. The plants then remain at 96% rel. atmospheric humidity and a temperature of 20° C.
# Evaluation was carried out 7 days after the inoculation. 0% means an efficacy which corresponds to that of the control, whereas an efficacy of 100% means that no infection is observed.
row,SMILES,Efficacy in %
1,CCCC(C)c1ccccc1NC(=O)c1c(C)nn(C)c1F (centres unmarked) [drawing 101],95%
2,Cc1nn(C)c(F)c1C(=O)Nc1ccccc1C(C)C(C)C (centres unmarked) [drawing 102],95%
3,Cc1nn(C)c(F)c1C(=O)Nc1ccccc1C(C)CC(C)C (centres unmarked) [drawing 103],100%

# Tested on: not listed separately
# Test: logP by HPLC, reversed-phase column (C 18), EEC Directive 79/831 Annex V.A8
# Assay type: physicochemical
# Conditions: reversed-phase HPLC column (C 18), acidic range pH 2.3, 0.1% aqueous phosphoric acid/acetonitrile gradient, 43° C.
# Experimental: The logP values given in the preparation examples and tables above are determined in accordance with EEC Directive 79/831 Annex V.A8 by HPLC (High Performance Liquid Chromatography) using a reversed-phase column (C 18). Temperature: 43° C. The determination is carried out in the acidic range at pH 2.3 using the mobile phases 0.1% aqueous phosphoric acid and acetonitrile; linear gradient from 10% acetonitrile to 90% acetonitrile. The calibration is carried out using unbranched alkan-2-ones (having 3 to 16 carbon atoms), with known logP values (determination of the logp values by the retention times using linear interpolation between two successive alkanones).
row,chromatographic logP,SMILES
1,3.01,"CCC(CC)c1ccccc1NC(=O)c1c(C)nn(C)c1F [Example 2, N-[2-(1-ethylpropyl)phenyl]-5-fluoro-1,3-dimethyl-1H-pyrazol-4-carboxamide]"
2,3.37,C=C(c1ccccc1NC(=O)c1c(C)nn(C)c1F)C(C)C [Example I-10]
3,3.01,CCCC(C)c1ccccc1NC(=O)c1c(C)nn(C)c1F (centres unmarked) [Example I-17]
4,2.92,Cc1nn(C)c(F)c1C(=O)Nc1ccccc1C(C)C(C)C (centres unmarked) [Example I-18]
5,1.92,C=Cc1ccccc1NC(=O)c1c(C)nn(C)c1F [Example I-20]
6,3.26,Cc1nn(C)c(F)c1C(=O)Nc1ccccc1C(C)CC(C)C (centres unmarked) [Example I-21]
7,2.57,C=C(C)c1ccccc1NC(=O)c1c(C)nn(C)c1F [Example I-23]
8,3.45,C/C=C(\CC)c1ccccc1NC(=O)c1c(C)nn(C)c1F [Example I-24]
9,3.67,CCC(C)CC(C)c1ccccc1NC(=O)c1c(C)nn(C)c1F (centres unmarked) [Example I-26]
10,3.73,CCC(CC(C)C)c1ccccc1NC(=O)c1c(C)nn(C)c1F (centres unmarked) [Example I-28]
11,3.74,CCC(C)C(CC)c1ccccc1NC(=O)c1c(C)nn(C)c1F (centres unmarked) [Example I-29]
12,3.42,CCCC(CC)c1ccccc1NC(=O)c1c(C)nn(C)c1F (centres unmarked) [Example I-32]
13,4.22,Cc1nn(C)c(F)c1C(=O)Nc1ccccc1C(C)CCCC(C)C (centres unmarked) [Example I-34]
14,4.11,CCCC(C)CC(C)c1ccccc1NC(=O)c1c(C)nn(C)c1F (centres unmarked) [Example I-35]
15,3.76,Cc1nn(C)c(F)c1C(=O)Nc1ccccc1C(C)CCC(C)C (centres unmarked) [Example I-36]
16,4.49,CC(C)=CC(C)CCC(C)c1ccccc1NC(=O)c1c(C)nn(C)c1F (centres unmarked) [Example I-37]
17,3.37,CCC(c1ccccc1NC(=O)c1c(C)nn(C)c1F)C(C)C (centres unmarked) [Example I-38]

row,chromatographic logP,SMILES
1,4.24,CCCCC(c1ccccc1NC(=O)c1c(C)nn(C)c1F)C(C)C (centres unmarked) [Example I-39]
2,3.28,CCC(C)C(C)c1ccccc1NC(=O)c1c(C)nn(C)c1F (centres unmarked) [Example I-40]
3,3.09,Cc1nn(C)c(F)c1C(=O)Nc1ccccc1C(C)(F)C(C)C (centres unmarked) [Example I-46]
4,4.01,Cc1nn(C)c(F)c1C(=O)Nc1ccccc1C(C)(F)CCCCCl (centres unmarked) [Example I-47]
5,3.44,CCC(C)C(C)(F)c1ccccc1NC(=O)c1c(C)nn(C)c1F (centres unmarked) [Example I-48]
6,3.47,Cc1nn(C)c(F)c1C(=O)Nc1ccccc1C(C)(F)CC(C)C (centres unmarked) [Example I-49]
7,3.59,Cc1nn(C)c(F)c1C(=O)Nc1ccccc1C#CC(C)C [Example I-53]
8,2.44,"Cc1nn(C)c(F)c1C(=O)Nc1ccccc1I [Example V-1, 5-fluoro-N-(2-iodophenyl)-1,3-dimethyl-1H-pyrazol-4-carboxamide]"
9,2.47,"CCC(O)(CC)c1ccccc1NC(=O)c1c(C)nn(C)c1F [IV-1, N-[2-(1-ethyl-1-hydroxypropyl)phenyl]-5-fluoro-1,3-dimethyl-1H-pyrazol-4-carboxamide]"
10,2.4,CCCC(C)(O)c1ccccc1NC(=O)c1c(C)nn(C)c1F (centres unmarked) [IV-2]
11,3.13,CCCCCC(C)(O)c1ccccc1NC(=O)c1c(C)nn(C)c1F (centres unmarked) [IV-3]
12,3.1,Cc1nn(C)c(F)c1C(=O)Nc1ccccc1C(C)(O)C1CCCCC1 (centres unmarked) [IV-4]
13,2.41,Cc1nn(C)c(F)c1C(=O)Nc1ccccc1C(C)(O)C(C)C (centres unmarked) [IV-5]
14,2.68,Cc1nn(C)c(F)c1C(=O)Nc1ccccc1C(C)(O)CC(C)C (centres unmarked) [IV-6]
15,2.99,Cc1nn(C)c(F)c1C(=O)Nc1ccc(Cl)cc1C(C)(O)C(C)C (centres unmarked) [IV-12]
16,3.11,CCC(O)(CC(C)C)c1ccccc1NC(=O)c1c(C)nn(C)c1F (centres unmarked) [IV-13]
17,2.15,"CC(=O)c1ccccc1NC(=O)c1c(C)nn(C)c1F [VIII-1, N-(2-acetylphenyl)-5-fluoro-1,3-dimethyl-1H-pyrazol-4-carboxamide]"

# More lines, now with the values behind:
row,SMILES,chromatographic logP
1,"Cc1nn(C)c(F)c1C(=O)Nc1ccccc1C=CC1CC1(F)F (centres unmarked) [Example 4, N-{2-[2-(2,2-difluorocyclopropyl)ethenyl]-phenyl}-5-fluoro-1,3-dimethyl-1H-pyrazol-4-carboxamide]",2.59
2,"CCCC/C=C(\C)c1ccccc1NC(=O)c1c(C)nn(C)c1F [Example 5, 5-fluoro-1,3-dimethyl-N-[2-(1-methyl-1-hexenyl)phenyl]-1H-pyrazol-4-carboxamide]",4.36
3,C=C(c1ccccc1NC(=O)c1c(C)nn(C)c1F)C1CCCCC1 [Example I-9],4.36
4,C=C(c1cc(Cl)ccc1NC(=O)c1c(C)nn(C)c1F)C(C)C [Example I-16],4.11
5,Cc1nn(C)c(F)c1C(=O)Nc1ccc(Cl)cc1C(C)C(C)C (centres unmarked) [Example I-19],3.43
6,CCCCCC(C)c1ccccc1NC(=O)c1c(C)nn(C)c1F (centres unmarked) [Example I-22],3.83
7,Cc1nn(C)c(F)c1C(=O)Nc1ccc(Cl)cc1C(C)CC(C)C (centres unmarked) [Example I-25],3.82
8,Cc1nn(C)c(F)c1C(=O)Nc1ccccc1C(C)CC1CCCC1 (centres unmarked) [Example I-27],3.82
9,CCCCCCCCC(C)c1ccccc1NC(=O)c1c(C)nn(C)c1F (centres unmarked) [Example I-30],5.29
10,CCCCC(CC)c1ccccc1NC(=O)c1c(C)nn(C)c1F (centres unmarked) [Example I-31],3.85
11,CCC(c1ccccc1NC(=O)c1c(C)nn(C)c1F)C1CCCCC1 (centres unmarked) [Example I-33],4.34
12,Cc1nn(C)c(F)c1C(=O)Nc1ccc(F)cc1C(C)CC(C)C (centres unmarked) [Example I-41],3.32
13,Cc1nn(C)c(F)c1C(=O)Nc1ccccc1C(C)C1CCCCC1 (centres unmarked) [Example I-42],3.82
14,CCCC(C)c1cc(F)ccc1NC(=O)c1c(C)nn(C)c1F (centres unmarked) [Example I-43],3.05
15,Cc1nn(C)c(F)c1C(=O)Nc1c(F)cccc1C(C)CC(C)C (centres unmarked) [Example I-44],3.16
16,Cc1nn(C)c(F)c1C(=O)Nc1ccccc1C(C)CC1CCCCC1 (centres unmarked) [Example I-45],4.2
17,CCCC(C)c1cccc(F)c1NC(=O)c1c(C)nn(C)c1F (centres unmarked) [Example I-50],2.86
18,Cc1nn(C)c(F)c1C(=O)Nc1ccccc1C#CCC1CCCCC1 [Example I-52],5.08
19,Cc1nn(C)c(F)c1C(=O)Nc1c(C(C)CC(C)C)cccc1C(C)CC(C)C (centres unmarked) [Example I-54],4.9
